{"source": "patent US8742098B2", "about": "“Inhibitors of Bruton's tyrosine kinase” (Hoffmann-La Roche Inc., priority 2011, dated 2014)"}
{"test_system": "B cell receptor-mediated activation of B cells in human blood", "test": "Inhibition of B cell activation in whole blood measured by CD69 expression", "assay_type": "cell-based", "details": "anti-IgM stimulation, 20 hours, CD69-positive cells that are also CD20-positive, read-out: HWB IC50", "description": "A procedure to test the ability of Btk inhibitors to suppress B cell receptor-mediated activation of B cells in human blood is as follows:\nHuman whole blood (HWB) is obtained from healthy volunteers, with the following restrictions: 24 hr drug-free, non-smokers. Blood is collected by venipuncture into Vacutainer tubes anticoagulated with sodium heparin. Test compounds are diluted to ten times the desired starting drug concentration in PBS (20×), followed by three-fold serial dilutions in 10% DMSO in PBS to produce a nine point dose-response curve. 5.5 μl of each compound dilution is added in duplicate to a 2 ml 96-well V bottom plate (Analytical Sales and Services, #59623-23); 5.5 μl of 10% DMSO in PBS is added to control and no-stimulus wells. HWB (100 μl) is added to each well, and after mixing the plates are incubated at 37 C, 5% CO2, 100% humidity for 30 minutes. Goat F(ab′)2 anti-human IgM (Southern Biotech, #2022-14) (10 μl of a 500 μg/ml solution, 50 μg/ml final concentration) is added to each well (except the no-stimulus wells) with mixing and the plates are incubated for an additional 20 hours.\nAt the end of the 20 hour incubation, samples are incubated with florescent-probe-labeled anti-bodies (15 μl PE Mouse anti-Human CD20, BD Pharmingen, #555623, and/or 20 ul APC Mouse anti-Human CD69, BD Pharmingen #555533) for 30 minutes, at 37 C, 5% CO2, 100% humidity. Included are induced control, unstained and single stains for compensation adjustments and initial voltage settings. Samples are then lysed with 1 ml of 1× Pharmingen Lyse Buffer (BD Pharmingen #555899), and plates are centrifuged at 1800 rpm for 5 minutes. Supernatants are removed via suction and the remaining pellets are lysed again with another 1 ml of 1× Pharmingen Lyse Buffer, and plates are spun down as before. Supernatants are aspirated and remaining pellets are washed in FACs buffer (PBS+1% FBS). After a final spin, the supernantants are removed and pellets are resuspended in 180 μl of FACs buffer. Samples are transferred to a 96 well plate suitable to be run on the HTS 96 well system on the BD LSR II flow cytometer.\nUsing appropriate excitation and emission wavelengths for the fluorophores used, data are acquired and percent positive cell values are obtained using Cell Quest Software. Results are initially analyzed by FACS analysis software (Flow Jo). […] The IC50 values are calculated using XLfit software version 3, equation 201.", "units": {"IC50": "nM"}}
{"smiles": "CC(C)(C)c1cc(F)c2c(=O)n(-c3cccc(-c4ccnc(Nc5ccc(C(=O)N6CCOCC6)cn5)c4)c3CO)ncc2c1", "note": "[Compound I-6, 6-tert-Butyl-8-fluoro-2-(2-hydroxymethyl-3-{2-[5-(morpholine-4-carbonyl)-pyridin-2-ylamino]-pyridin-4-yl}-phenyl)-2H-phthalazin-1-one]", "IC50": 480}
{"smiles": "CC(C)(C)c1cc(F)c2c(=O)n(-c3cccc(-c4cc(Nc5ccc(C(=O)N6CCOCC6)cn5)c5nccn5n4)c3CO)ncc2c1", "note": "[Compound I-2, 6-tert-Butyl-8-fluoro-2-(2-hydroxymethyl-3-{8-[5-(morpholine-4-carbonyl)-pyridin-2-ylamino]-imidazo[1,2-b]pyridazin-6-yl}-phenyl)-2H-phthalazin-1-one]", "IC50": 77}
{"smiles": "CC(C)(C)c1cc(F)c2c(=O)n(-c3cccc(-c4cc(Nc5ccc(C(=O)N6CCOCC6)cc5)c5nccn5c4)c3CO)ncc2c1", "note": "[Compound I-9, 6-tert-Butyl-8-fluoro-2-(2-hydroxymethyl-3-{8-[4-(morpholine-4-carbonyl)-phenylamino]-imidazo[1,2-a]pyridin-6-yl}-phenyl)-2H-phthalazin-1-one]", "IC50": 1040}
{"smiles": "CC(C)(C)c1cc(F)c2c(=O)n(-c3cccc(-c4cc(Nc5ccc(C(=O)N6CCOCC6)cn5)c5ncccc5c4)c3CO)ncc2c1", "note": "[Compound I-13, 6-tert-Butyl-8-fluoro-2-(2-hydroxymethyl-3-{8-[5-(morpholine-4-carbonyl)-pyridin-2-ylamino]-quinolin-6-yl}-phenyl)-2H-phthalazin-1-one]", "IC50": "> 5000"}
{"smiles": "CC(C)(C)c1cc(F)c2c(=O)n(-c3cccc(-c4cnnc(Nc5ccc(C(=O)N6CCOCC6)cn5)c4)c3CO)ncc2c1", "note": "[Compound I-5, 6-tert-Butyl-8-fluoro-2-(2-hydroxymethyl-3-{6-[5-(morpholine-4-carbonyl)-pyridin-2-ylamino]-pyridazin-4-yl}-phenyl)-2H-phthalazin-1-one]", "IC50": 890}
{"smiles": "CN1CCC(c2ccc(Nc3cc(-c4cccc(-n5ncc6cc(C(C)(C)C)cc(F)c6c5=O)c4CO)cn4ccnc34)nc2)CC1", "note": "[Compound I-11, 6-tert-Butyl-8-fluoro-2-{2-hydroxymethyl-3-[8-(1′-methyl-1′,2′,3′,4′,5′,6′-hexahydro-[3,4′]bipyridinyl-6-ylamino)-imidazo[1,2-a]pyridin-6-yl]-phenyl}-2H-phthalazin-1-one]", "IC50": 72}
{"smiles": "CN1CCC(c2ccc(Nc3nc(-c4cccc(-n5ncc6cc(C(C)(C)C)cc(F)c6c5=O)c4CO)cn4ccnc34)cc2)CC1", "note": "[Compound I-8, 6-tert-Butyl-8-fluoro-2-(2-hydroxymethyl-3-{8-[4-(1-methyl-piperidin-4-yl)-phenylamino]-imidazo[1,2-a]pyrazin-6-yl}-phenyl)-2H-phthalazin-1-one]", "IC50": 2270}
{"smiles": "CC(C)(C)c1cc(F)c2c(=O)n(-c3cccc(-c4cc(Nc5ccc(C(=O)N6CCOCC6)cn5)ncn4)c3CO)ncc2c1", "note": "[Compound I-12, 6-tert-Butyl-8-fluoro-2-(2-hydroxymethyl-3-{6-[5-(morpholine-4-carbonyl)-pyridin-2-ylamino]-pyrimidin-4-yl}-phenyl)-2H-phthalazin-1-one]", "IC50": 2500}
{"smiles": "CN1CCN(Cc2ccc(Nc3cc(-c4cccc(-n5ncc6cc(C(C)(C)C)cc(F)c6c5=O)c4CO)nn4ccnc34)nc2)CC1", "note": "[Compound I-4, 6-tert-Butyl-8-fluoro-2-(2-hydroxymethyl-3-{8-[5-(4-methyl-piperazin-1-ylmethyl)-pyridin-2-ylamino]-imidazo[1,2-b]pyridazin-6-yl}-phenyl)-2H-phthalazin-1-one]", "IC50": 13}
{"smiles": "CC(C)(C)c1cc(F)c2c(=O)n(-c3cccc(-c4cn5ccnc5c(Nc5ccc(C(=O)N6CCOCC6)cc5)n4)c3CO)ncc2c1", "note": "[Compound I-7, 6-tert-Butyl-8-fluoro-2-(2-hydroxymethyl-3-{8-[4-(morpholine-4-carbonyl)-phenylamino]-imidazo[1,2-a]pyrazin-6-yl}-phenyl)-2H-phthalazin-1-one]", "IC50": 112}
{"smiles": "CC(C)(C)c1cc(F)c2c(=O)n(-c3cccc(-c4cc(Nc5ccc(C(=O)N6CCOCC6)cn5)c5ncnn5c4)c3CO)ncc2c1", "note": "[Compound I-1, 6-tert-Butyl-8-fluoro-2-(2-hydroxymethyl-3-{8-[5-(morpholine-4-carbonyl)-pyridin-2-ylamino]-[1,2,4]triazolo[1,5-a]pyridin-6-yl}-phenyl)-2H-phthalazin-1-one]", "IC50": 350}
{"smiles": "CC(C)(C)c1cc(F)c2c(=O)n(-c3cccc(-c4cc(Nc5ccc(C(=O)N6CCOCC6)cn5)c5nccn5c4)c3CO)ncc2c1", "note": "[Compound I-10, 6-tert-Butyl-8-fluoro-2-(2-hydroxymethyl-3-{8-[5-(morpholine-4-carbonyl)-pyridin-2-ylamino]-imidazo[1,2-a]pyridin-6-yl}-phenyl)-2H-phthalazin-1-one]", "IC50": 142}
{"smiles": "CC(C)N1CCN(c2ccc(Nc3cc(-c4cccc(-n5ncc6cc(C(C)(C)C)cc(F)c6c5=O)c4CO)nn4ccnc34)nc2)CC1", "note": "[Compound I-3, 6-tert-Butyl-8-fluoro-2-(2-hydroxymethyl-3-{8-[5-(4-isopropyl-piperazin-1-yl)-pyridin-2-ylamino]-imidazo[1,2-b]pyridazin-6-yl}-phenyl)-2H-phthalazin-1-one]", "IC50": 40}
